Experimental data from patent US20110217715A1, “GENE EXPRESSION IN DUCHENNE MUSCULAR DYSTROPHY” (CHILDREN'S HOSPITAL MEDICAL CENTER, priority 2008, published 2011).

Test system: mRNA expression in peripheral blood of individuals with DMD
Assay: Whole-blood gene expression microarray: DMD administered deflazacort vs DMD administered prednisone
Assay type: in vivo, human
Protocol: Fifteen ml of blood was collected from each individual into 6 PAXgene® Vacutainer® tubes (PreAnalytiX, Germany) by antecubital fossa venipuncture. PAXgene® tubes contain a proprietary reagent that immediately stabilizes RNA, thus reducing RNA degradation and minimizing gene expression changes following phlebotomy. The tubes were then inverted 20 times, then remained undisturbed for 2 h at room temperature (about 19° C. to about 22° C.), and then stored at -70° C. until processed. Total RNA was isolated using the Paxgene® blood RNA kit (PreAnalytiX, Germany) according to the manufacturers instructions. The RNA isolated is from all cells in whole blood. Typical yields of total RNA isolated from about 7.5 ml of human whole blood were between 10 μg RNA and 40 μg RNA. RNA quality and purity was analyzed by spectrophotometry using the Nanodrop ND-1000, and RNA integrity was analyzed using the Agilent 2100 Bioanalyzer. […] Sample labeling, hybridization to chips, and image scanning were performed using standard Affymetrix protocols. For each whole blood sample from control individuals and individuals with DMD, total RNA was labeled using the One-Cycle Target Labeling protocol and hybridized to the arrays. […] Double-stranded cDNA synthesis, biotin-labeled cRNA synthesis, and cRNA fragmentation were performed according to the Affymetrix GeneChip Eukaryotic Expression Analysis protocol. The labeled, fragmented cRNA (15 μg) was hybridized at 45° C. overnight. After hybridization, the array was washed and stained. The arrays were scanned with an argon-ion laser at λ=570 nm, with a resolution of 3 μm/pixel (Affymetrix, Inc.). After scanning the array, the raw probe level values for each probe were saved in Affymetrix.cel files. […] Statistical analyses, including t-test analyses, unsupervised hierarchical clustering, and principal component analyses were conducted using Genespring 7.2 software ([…]® 7, Silicon Genetics, Redwood City Calif.). […] Corrections for multiple comparisons used a Benjamini-Hochberg False Discovery Rate (FDR) of 0.05, disclosed in Tang et al., J Cereb Blood Flow Metab 26 (2006) 1089, which is expressly incorporated by reference herein in its entirety. […] Sample processing and array hybridization, probe-level data analysis, and statistical analysis were identical to Example 1.

Q: Which “p-value (t-test, deflazacort vs prednisone)” value (deflazacort vs. prednisone, NM_004862, Nucleic Acid No. 2094) does the source give for `CC(=O)OCC(=O)[C@@]12N=C(C)O[C@@H]1C[C@H]1[C@@H]3CCC4=CC(=O)C=C[C@]4(C)[C@H]3[C@@H](O)C[C@@]12C` [deflazacort] here?
A: 0.0123

Q: And the “p-value (t-test, deflazacort vs. prednisone)” value (deflazacort vs. prednisone, NM_005306, Nucleic Acid No. 2036)?
A: 0.00696

Q: And the “p-value (t-test, deflazacort vs. prednisone)” value (deflazacort vs. prednisone, NM_005345, Nucleic Acid No. 275)?
A: 0.0354

Q: What about the p-value (deflazacort vs. prednisone, NM_005461, Nucleic Acid No. 1310) of the same compound?
A: 0.0317

Q: And the p-value (deflazacort vs. prednisone, NM_005502, Nucleic Acid No. 1893)?
A: 0.00709

Q: What about the “p-value (t-test, deflazacort vs prednisone)” value (deflazacort vs. prednisone, NM_005569, Nucleic Acid No. 2093) of the same compound?
A: 0.0261

Q: And the “p-value (t-test, deflazacort vs prednisone)” value (deflazacort vs. prednisone, NM_005574, Nucleic Acid No. 2095)?
A: 0.0476

Q: What about the p-value (deflazacort vs. prednisone, NM_005720, Nucleic Acid No. 1912) of the same compound?
A: 0.0485

Q: What about the p-value (deflazacort vs. prednisone, NM_005890, Nucleic Acid No. 2024) of the same compound?
A: 0.0113

Q: What about the “p-value (t-test, deflazacort vs. prednisone)” value (deflazacort vs. prednisone, NM_006018, Nucleic Acid No. 2035) of the same compound?
A: 0.000507

Q: What about the “p-value (t-test, deflazacort vs. prednisone)” value (deflazacort vs. prednisone, NM_006332, Nucleic Acid No. 2055) of the same compound?
A: 0.0414

Q: And the p-value (deflazacort vs. prednisone, NM_006854, Nucleic Acid No. 2078)?
A: 0.0129

Q: What about the “p-value (t-test, deflazacort vs prednisone)” value (deflazacort vs. prednisone, NM_006863, Nucleic Acid No. 2092) of the same compound?
A: 0.00957

Q: And the “p-value (t-test, deflazacort vs. prednisone)” value (deflazacort vs. prednisone, NM_014179, Nucleic Acid No. 2051)?
A: 0.0407

Q: What about the “p-value (t-test, deflazacort vs. prednisone)” value (deflazacort vs. prednisone, NM_014339, Nucleic Acid No. 2058) of the same compound?
A: 0.0463

Q: What about the “p-value (t-test, deflazacort vs prednisone)” value (deflazacort vs. prednisone, NM_014656, Nucleic Acid No. 2079) of the same compound?
A: 0.00329

Q: What about the p-value (deflazacort vs. prednisone, NM_018690, Nucleic Acid No. 1907) of the same compound?
A: 0.00658

Q: What about the p-value (deflazacort vs. prednisone, NM_019043, Nucleic Acid No. 1040) of the same compound?
A: 0.0288

Q: And the “p-value (t-test, deflazacort vs. prednisone)” value (deflazacort vs. prednisone, NM_020179, Nucleic Acid No. 2016)?
A: 0.0196

Q: What about the “p-value (t-test, deflazacort vs. prednisone)” value (deflazacort vs. prednisone, NM_020386, Nucleic Acid No. 2046) of the same compound?
A: 0.0129

Q: And the p-value (deflazacort vs. prednisone, NM_152641, Nucleic Acid No. 1576)?
A: 0.0457

Q: And the “p-value (t-test, deflazacort vs. prednisone)” value (deflazacort vs. prednisone, R38084, Nucleic Acid No. 2026)?
A: 0.0133

Q: And the p-value (deflazacort vs. prednisone, S72848, Nucleic Acid No. 1686)?
A: 0.0226

Q: And the “p-value (t-test, deflazacort vs prednisone)” value (deflazacort vs. prednisone, T85248, Nucleic Acid No. 1311)?
A: 0.0383

Q: What about the p-value (deflazacort vs. prednisone, U48734, Nucleic Acid No. 1898) of the same compound?
A: 0.0349

Q: And the “p-value (t-test, deflazacort vs. prednisone)” value (deflazacort vs. prednisone, U65590, Nucleic Acid No. 2061)?
A: 0.00419

Q: And the p-value (deflazacort vs. prednisone, U70064, Nucleic Acid No. 414)?
A: 0.0255

Q: And the “p-value (t-test, deflazacort vs. prednisone)” value (deflazacort vs. prednisone, U81501, Nucleic Acid No. 2021)?
A: 0.0425

Q: And the “p-value (t-test, deflazacort vs prednisone)” value (deflazacort vs. prednisone, U93240, Nucleic Acid No. 2086)?
A: 0.0114

Q: What about the p-value (deflazacort vs. prednisone, U97075, Nucleic Acid No. 1949) of the same compound?
A: 0.0264

Q: And the “p-value (t-test, deflazacort vs. prednisone)” value (deflazacort vs. prednisone, W27419, Nucleic Acid No. 2052)?
A: 0.0306

Q: And the “p-value (t-test, deflazacort vs. prednisone)” value (deflazacort vs. prednisone, W93728, Nucleic Acid No. 1590)?
A: 0.0103

Q: And the p-value (deflazacort vs. prednisone, W95007, Nucleic Acid No. 1896)?
A: 0.0111

Q: What about the “p-value (t-test, deflazacort vs. prednisone)” value (deflazacort vs. prednisone, X51757, Nucleic Acid No. 2050) of the same compound?
A: 0.0352

Q: And the p-value (gene M-RIP, Genbank BF515158, Nucleic Acid No. 2128)?
A: 0.0466

Q: And the p-value (gene MLKL, Genbank AA706818, Nucleic Acid No. 2125)?
A: 0.031

Q: What about the p-value (gene MLL3, Genbank AI057455, Nucleic Acid No. 2126) of the same compound?
A: 0.0474

Q: What about the p-value (gene MLLT2, Genbank AA703523, Nucleic Acid No. 2127) of the same compound?
A: 0.0149

Q: And the p-value (gene MLSTD1, Genbank NM_018099, Nucleic Acid No. 1848)?
A: 0.0331

Q: And the p-value (gene MS4A7, Genbank AF237916, Nucleic Acid No. 2129)?
A: 0.0291

Q: What about the p-value (gene MTF1, Genbank NM_005955, Nucleic Acid No. 2130) of the same compound?
A: 5.84E−05

Q: What about the p-value (gene MX2, Genbank NM_002463, Nucleic Acid No. 2131) of the same compound?
A: 0.0283

Q: And the p-value (gene MYADM, Genbank BE908995, Nucleic Acid No. 2132)?
A: 0.0206

Q: What about the p-value (gene MYLIP, Genbank AW292746, Nucleic Acid No. 2133) of the same compound?
A: 0.00321

Q: What about the p-value (gene MYO1F, Genbank BF740152, Nucleic Acid No. 2134) of the same compound?
A: 0.0266

Q: What about the p-value (gene N4BP1, Genbank AB014515, Nucleic Acid No. 2135) of the same compound?
A: 0.0291

Q: What about the p-value (gene NCF2, Genbank BC001606, Nucleic Acid No. 2136) of the same compound?
A: 0.0348

Q: What about the p-value (gene NCOA1, Genbank BF576458, Nucleic Acid No. 2137) of the same compound?
A: 0.00399

Q: What about the p-value (gene NCOA6, Genbank AF128458, Nucleic Acid No. 926) of the same compound?
A: 0.0221

Q: What about the p-value (gene NDE1, Genbank BF973292, Nucleic Acid No. 2138) of the same compound?
A: 0.024

Q: And the p-value (gene NDE1, Genbank NM_017668, Nucleic Acid No. 2139)?
A: 0.0358

Q: What about the p-value (gene NFIC, Genbank AW134798, Nucleic Acid No. 2140) of the same compound?
A: 0.0141

Q: And the p-value (gene NKTR, Genbank AI880383, Nucleic Acid No. 2141)?
A: 0.0222

Q: And the p-value (gene NOTCH2, Genbank AA291203, Nucleic Acid No. 2142)?
A: 0.00739

Q: And the p-value (gene NOTCH2, Genbank AF308601, Nucleic Acid No. 1046)?
A: 0.0265

Q: And the p-value (gene NOTCH2NL, Genbank AW516297, Nucleic Acid No. 2143)?
A: 0.0362

Q: What about the p-value (gene NSF, Genbank AK025172, Nucleic Acid No. 2144) of the same compound?
A: 0.0411

Q: What about the p-value (gene OLIG1, Genbank AL355743, Nucleic Acid No. 1399) of the same compound?
A: 0.00583

Q: And the p-value (gene OSTF1, Genbank NM_012383, Nucleic Acid No. 2145)?
A: 0.0203

Q: And the p-value (gene PACSIN2, Genbank NM_007229, Nucleic Acid No. 2146)?
A: 0.0409

Q: And the p-value (gene PAPD4, Genbank AW104325, Nucleic Acid No. 2147)?
A: 0.00878

Q: And the p-value (gene PARP9, Genbank AI738416, Nucleic Acid No. 2148)?
A: 0.0394

Q: What about the p-value (gene PARVG, Genbank AL355092, Nucleic Acid No. 2149) of the same compound?
A: 0.0293

Q: What about the p-value (gene PB1, Genbank H79538, Nucleic Acid No. 2150) of the same compound?
A: 0.0371

Q: And the p-value (gene PBX2, Genbank BE397715, Nucleic Acid No. 2151)?
A: 0.0221

Q: And the p-value (gene PCBP2, Genbank AW025150, Nucleic Acid No. 2152)?
A: 0.0394

Q: And the p-value (gene PDLIM5, Genbank NM_006457, Nucleic Acid No. 2153)?
A: 0.0238
